{"source": "ChEMBL document CHEMBL5678818", "about": "“Discovery of potent SOS1 inhibitors that block RAS activation via disruption of the RAS-SOS1 interaction” (Proc Natl Acad Sci U S A, 2019)", "key": {"[1]": {"target": "Serine/threonine-protein kinase PAK 6 (Homo sapiens) (UniProt Q9NQU5)", "sequence (Q9NQU5 whole entry, looked up)": "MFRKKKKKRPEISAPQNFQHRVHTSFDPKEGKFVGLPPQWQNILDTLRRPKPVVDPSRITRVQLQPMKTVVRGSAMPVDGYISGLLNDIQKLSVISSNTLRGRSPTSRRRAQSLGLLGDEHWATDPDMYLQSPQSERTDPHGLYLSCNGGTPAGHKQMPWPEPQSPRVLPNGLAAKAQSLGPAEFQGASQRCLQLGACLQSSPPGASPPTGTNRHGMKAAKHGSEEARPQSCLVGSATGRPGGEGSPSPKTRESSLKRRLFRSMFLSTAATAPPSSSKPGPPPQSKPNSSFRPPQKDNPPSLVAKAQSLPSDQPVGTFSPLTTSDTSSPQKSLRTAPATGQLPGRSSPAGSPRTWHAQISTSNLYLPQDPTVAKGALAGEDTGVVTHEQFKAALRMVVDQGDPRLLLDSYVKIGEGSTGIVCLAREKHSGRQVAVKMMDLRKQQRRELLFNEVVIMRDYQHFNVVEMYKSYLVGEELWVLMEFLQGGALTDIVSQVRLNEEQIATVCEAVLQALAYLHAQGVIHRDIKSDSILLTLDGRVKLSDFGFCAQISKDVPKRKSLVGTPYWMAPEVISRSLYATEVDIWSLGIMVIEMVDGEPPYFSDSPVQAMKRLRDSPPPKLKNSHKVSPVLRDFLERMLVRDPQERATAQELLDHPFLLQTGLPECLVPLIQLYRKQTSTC", "assay": "Inhibition of PAK6 (unknown origin) assessed as residual activity at 1000 nM by KINOMEscan analysis relative to control"}, "[2]": {"system": "Proto-oncogene tyrosine-protein kinase receptor Ret (Homo sapiens), P07949 [M918T]", "sequence (P07949 whole entry M918T)": "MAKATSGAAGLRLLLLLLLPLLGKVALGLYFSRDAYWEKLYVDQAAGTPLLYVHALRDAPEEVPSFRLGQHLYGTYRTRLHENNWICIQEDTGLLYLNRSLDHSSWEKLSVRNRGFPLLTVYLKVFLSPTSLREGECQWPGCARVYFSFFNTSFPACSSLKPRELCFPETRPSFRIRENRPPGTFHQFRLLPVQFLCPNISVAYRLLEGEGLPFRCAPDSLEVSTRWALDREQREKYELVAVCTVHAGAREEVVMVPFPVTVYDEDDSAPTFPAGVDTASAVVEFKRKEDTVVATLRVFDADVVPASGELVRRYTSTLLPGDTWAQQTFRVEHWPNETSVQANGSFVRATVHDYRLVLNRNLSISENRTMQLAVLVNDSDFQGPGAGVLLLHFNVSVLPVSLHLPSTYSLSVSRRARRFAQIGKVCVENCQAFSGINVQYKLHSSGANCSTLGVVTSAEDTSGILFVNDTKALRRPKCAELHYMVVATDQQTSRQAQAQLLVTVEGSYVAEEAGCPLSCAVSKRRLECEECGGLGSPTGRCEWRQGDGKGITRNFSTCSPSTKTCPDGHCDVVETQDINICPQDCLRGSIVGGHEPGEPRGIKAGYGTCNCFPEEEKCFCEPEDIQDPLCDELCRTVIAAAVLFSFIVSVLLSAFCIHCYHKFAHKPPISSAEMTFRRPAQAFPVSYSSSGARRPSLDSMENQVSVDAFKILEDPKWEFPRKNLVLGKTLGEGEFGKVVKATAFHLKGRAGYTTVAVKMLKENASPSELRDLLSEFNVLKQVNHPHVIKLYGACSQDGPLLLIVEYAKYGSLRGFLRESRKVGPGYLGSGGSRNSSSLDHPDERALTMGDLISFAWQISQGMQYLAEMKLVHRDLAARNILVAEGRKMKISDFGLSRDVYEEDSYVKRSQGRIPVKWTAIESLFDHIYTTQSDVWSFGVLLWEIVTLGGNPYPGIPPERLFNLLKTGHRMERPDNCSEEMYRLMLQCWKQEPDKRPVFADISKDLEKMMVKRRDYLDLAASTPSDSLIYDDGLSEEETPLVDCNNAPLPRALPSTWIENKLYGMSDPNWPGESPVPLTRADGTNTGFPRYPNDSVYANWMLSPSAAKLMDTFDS", "assay": "Inhibition of RET M918T mutant (unknown origin) assessed as residual activity at 1000 nM by KINOMEscan analysis relative to control"}, "[3]": {"target": "T1, Serine/threonine-protein kinase 3 (Homo sapiens) (UniProt Q13188)", "T1 sequence (whole entry)": "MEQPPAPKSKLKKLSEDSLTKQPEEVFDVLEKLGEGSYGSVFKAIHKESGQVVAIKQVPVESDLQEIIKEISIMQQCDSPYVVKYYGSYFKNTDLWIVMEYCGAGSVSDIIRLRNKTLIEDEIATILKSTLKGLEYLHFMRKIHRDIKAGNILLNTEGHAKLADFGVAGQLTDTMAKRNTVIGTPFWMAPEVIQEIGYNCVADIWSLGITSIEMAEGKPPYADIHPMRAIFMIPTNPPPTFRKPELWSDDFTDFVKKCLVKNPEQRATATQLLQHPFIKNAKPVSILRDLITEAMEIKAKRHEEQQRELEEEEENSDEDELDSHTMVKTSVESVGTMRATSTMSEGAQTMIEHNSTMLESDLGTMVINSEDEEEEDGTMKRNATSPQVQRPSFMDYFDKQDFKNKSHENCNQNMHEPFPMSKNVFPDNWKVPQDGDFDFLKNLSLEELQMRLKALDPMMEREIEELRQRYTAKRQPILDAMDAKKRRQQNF", "assay": "Inhibition of MST2 (unknown origin) assessed as residual activity at 1000 nM by KINOMEscan analysis relative to control"}, "[4]": {"target": "Tyrosine-protein kinase Fyn (Homo sapiens) (UniProt P06241)", "sequence (P06241 2-537 limits assumed)": "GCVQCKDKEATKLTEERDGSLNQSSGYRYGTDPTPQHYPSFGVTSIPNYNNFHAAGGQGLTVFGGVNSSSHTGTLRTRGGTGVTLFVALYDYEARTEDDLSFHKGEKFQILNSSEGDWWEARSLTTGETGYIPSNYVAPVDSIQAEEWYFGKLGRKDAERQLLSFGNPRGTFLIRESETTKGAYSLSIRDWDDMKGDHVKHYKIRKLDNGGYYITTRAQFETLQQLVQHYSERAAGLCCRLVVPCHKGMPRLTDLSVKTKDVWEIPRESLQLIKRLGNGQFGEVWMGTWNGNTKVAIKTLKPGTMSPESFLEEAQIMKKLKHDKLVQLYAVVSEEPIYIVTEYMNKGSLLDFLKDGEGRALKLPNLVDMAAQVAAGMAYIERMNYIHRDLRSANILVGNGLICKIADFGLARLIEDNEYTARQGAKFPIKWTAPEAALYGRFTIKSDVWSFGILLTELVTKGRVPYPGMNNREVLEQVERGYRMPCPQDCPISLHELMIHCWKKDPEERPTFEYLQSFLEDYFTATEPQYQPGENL", "assay": "Inhibition of FYN (unknown origin) assessed as residual activity at 1000 nM by KINOMEscan analysis relative to control"}, "[5]": {"target": "T2, Protein kinase C iota type (Homo sapiens) (UniProt P41743)", "T2 sequence (whole entry)": "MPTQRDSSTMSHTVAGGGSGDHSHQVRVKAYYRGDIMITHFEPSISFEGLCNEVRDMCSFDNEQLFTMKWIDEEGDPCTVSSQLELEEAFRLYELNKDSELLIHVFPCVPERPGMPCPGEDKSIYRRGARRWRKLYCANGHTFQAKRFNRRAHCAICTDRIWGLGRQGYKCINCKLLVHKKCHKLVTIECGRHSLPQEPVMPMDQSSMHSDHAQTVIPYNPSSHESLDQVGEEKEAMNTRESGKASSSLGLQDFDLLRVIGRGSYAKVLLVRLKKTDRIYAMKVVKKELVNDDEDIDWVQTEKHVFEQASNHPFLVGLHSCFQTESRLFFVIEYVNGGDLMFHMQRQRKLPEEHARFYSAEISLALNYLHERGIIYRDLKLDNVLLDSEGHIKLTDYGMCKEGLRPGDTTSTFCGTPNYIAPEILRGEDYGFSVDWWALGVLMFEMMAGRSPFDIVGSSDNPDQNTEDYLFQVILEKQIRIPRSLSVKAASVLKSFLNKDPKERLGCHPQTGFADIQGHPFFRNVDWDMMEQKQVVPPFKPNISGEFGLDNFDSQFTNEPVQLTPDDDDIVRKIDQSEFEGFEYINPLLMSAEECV", "assay": "Inhibition of PRKCI (unknown origin) assessed as residual activity at 1000 nM by KINOMEscan analysis relative to control"}, "[6]": {"target": "T3, Rhodopsin kinase GRK1 (Homo sapiens) (UniProt Q15835)", "T3 sequence (whole entry)": "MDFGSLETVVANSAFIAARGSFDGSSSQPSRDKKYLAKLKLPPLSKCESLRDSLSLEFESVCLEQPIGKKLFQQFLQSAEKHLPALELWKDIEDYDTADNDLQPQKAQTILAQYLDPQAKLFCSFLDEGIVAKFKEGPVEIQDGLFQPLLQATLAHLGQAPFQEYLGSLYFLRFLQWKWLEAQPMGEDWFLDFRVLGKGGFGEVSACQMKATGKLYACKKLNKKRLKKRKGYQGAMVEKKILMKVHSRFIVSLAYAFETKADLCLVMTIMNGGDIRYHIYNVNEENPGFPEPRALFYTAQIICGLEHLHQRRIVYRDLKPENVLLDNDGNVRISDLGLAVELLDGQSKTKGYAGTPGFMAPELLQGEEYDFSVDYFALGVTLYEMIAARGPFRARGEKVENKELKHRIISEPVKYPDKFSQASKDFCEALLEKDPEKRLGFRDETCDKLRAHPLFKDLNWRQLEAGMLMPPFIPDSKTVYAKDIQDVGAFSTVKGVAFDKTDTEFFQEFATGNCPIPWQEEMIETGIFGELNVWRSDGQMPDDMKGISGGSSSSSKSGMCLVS", "assay": "Inhibition of GRK1 (unknown origin) assessed as residual activity at 1000 nM by KINOMEscan analysis relative to control"}, "[7]": {"target": "Serine/threonine-protein kinase Nek7 (Homo sapiens) (UniProt Q8TDX7)", "sequence (Q8TDX7 whole entry, looked up)": "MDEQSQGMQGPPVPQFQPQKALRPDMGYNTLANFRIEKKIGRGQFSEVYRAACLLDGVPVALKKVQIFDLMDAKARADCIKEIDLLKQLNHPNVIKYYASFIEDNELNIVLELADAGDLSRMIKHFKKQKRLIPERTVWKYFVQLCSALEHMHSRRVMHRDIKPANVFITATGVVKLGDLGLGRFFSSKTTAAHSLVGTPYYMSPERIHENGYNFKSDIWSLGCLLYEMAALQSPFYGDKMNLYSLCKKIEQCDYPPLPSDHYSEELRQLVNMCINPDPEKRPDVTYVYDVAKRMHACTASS", "assay": "Inhibition of NEK7 (unknown origin) assessed as residual activity at 1000 nM by KINOMEscan analysis relative to control"}, "[8]": {"target": "Phosphatidylinositol 4-kinase beta (Homo sapiens) (UniProt Q9UBF8)", "sequence (Q9UBF8 2-816 limits assumed)": "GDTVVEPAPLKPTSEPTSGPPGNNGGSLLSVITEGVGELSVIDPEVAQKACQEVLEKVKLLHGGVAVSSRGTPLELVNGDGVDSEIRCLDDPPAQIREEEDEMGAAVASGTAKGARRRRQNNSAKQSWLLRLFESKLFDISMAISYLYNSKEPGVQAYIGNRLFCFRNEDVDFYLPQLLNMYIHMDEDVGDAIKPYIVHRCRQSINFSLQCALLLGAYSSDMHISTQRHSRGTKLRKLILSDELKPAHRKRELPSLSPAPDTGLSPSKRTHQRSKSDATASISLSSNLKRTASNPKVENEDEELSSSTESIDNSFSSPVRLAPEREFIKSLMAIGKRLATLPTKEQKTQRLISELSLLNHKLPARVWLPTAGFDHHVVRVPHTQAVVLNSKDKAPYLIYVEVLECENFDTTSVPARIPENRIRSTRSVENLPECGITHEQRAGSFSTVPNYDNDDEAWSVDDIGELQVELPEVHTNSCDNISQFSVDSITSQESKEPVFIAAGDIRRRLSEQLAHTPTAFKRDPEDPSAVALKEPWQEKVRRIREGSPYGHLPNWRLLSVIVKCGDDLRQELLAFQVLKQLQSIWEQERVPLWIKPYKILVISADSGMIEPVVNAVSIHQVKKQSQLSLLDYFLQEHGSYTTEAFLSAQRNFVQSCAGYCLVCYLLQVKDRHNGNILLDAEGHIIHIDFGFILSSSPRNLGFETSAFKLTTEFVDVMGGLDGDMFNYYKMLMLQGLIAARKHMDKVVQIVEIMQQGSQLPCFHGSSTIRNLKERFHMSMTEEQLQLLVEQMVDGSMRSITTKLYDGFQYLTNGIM", "assay": "Inhibition of PIK4CB (unknown origin) assessed as residual activity at 1000 nM by KINOMEscan analysis relative to control"}}, "data": [{"smiles": "COc1cc2nc(C)nc(N[C@H](C)c3cccc(-c4cn[nH]c4)c3)c2cc1OC", "values": [{"measurement": "Activity", "setting": "[1]", "value": 88, "unit": "%"}, {"measurement": "Activity", "setting": "[2]", "value": 60, "unit": "%"}, {"measurement": "Activity", "setting": "[3]", "value": 79, "unit": "%"}, {"measurement": "Activity", "setting": "[4]", "value": 72, "unit": "%"}, {"measurement": "Activity", "setting": "[5]", "value": 61, "unit": "%"}, {"measurement": "Activity", "setting": "[6]", "value": 55, "unit": "%"}, {"measurement": "Activity", "setting": "[7]", "value": 89, "unit": "%"}, {"measurement": "Activity", "setting": "[8]", "value": 69, "unit": "%"}]}, {"smiles": "COc1cc2ncnc(N[C@H](C)c3cccc4ccccc34)c2cc1OC", "values": [{"measurement": "Activity", "setting": "[1]", "value": 91, "unit": "%"}, {"measurement": "Activity", "setting": "[2]", "value": 100, "unit": "%"}, {"measurement": "Activity", "setting": "[3]", "value": 96, "unit": "%"}, {"measurement": "Activity", "setting": "[4]", "value": 100, "unit": "%"}, {"measurement": "Activity", "setting": "[5]", "value": 100, "unit": "%"}, {"measurement": "Activity", "setting": "[6]", "value": 94, "unit": "%"}, {"measurement": "Activity", "setting": "[7]", "value": 100, "unit": "%"}, {"measurement": "Activity", "setting": "[8]", "value": 82, "unit": "%"}]}]}
